Data taken from PubChem BioAssay (NCI).
Where “and” joins values, the source holds several entries; their conditions need not be identical. Identical values can stand only once.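 Five compound concentrations were applied to cells in 96-well plates for 48 hours; endpoints were derived by simple linear interpolation of the resulting dose-response curve. GI50 = concentration required for 50% inhibition of growth. Definition used: TGI = concentration required for complete inhibition of growth.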

What was measured:
Test in all cases: growth of human tumour cells (NCI), 48 h
[1] = tested on: SK-MEL-28 melanoma
[2] = tested on: TK-10 renal
[3] = tested on: SN12C renal
[4] = tested on: OVCAR-4 ovarian
[5] = tested on: SK-MEL-5 melanoma
[6] = tested on: COLO 205 colon
[7] = tested on: HCC-2998 colon
[8] = tested on: LOX IMVI melanoma
[9] = tested on: IGROV1 ovarian
[10] = tested on: HS 578T breast
[11] = tested on: SW-620 colon
[12] = tested on: SNB-75 CNS
[13] = tested on: ACHN renal
[14] = tested on: NCI-H226 lung
[15] = tested on: OVCAR-8 ovarian
[16] = tested on: SNB-19 CNS
[17] = tested on: SF-268 CNS
[18] = tested on: PC-3 prostate
[19] = tested on: SR leukemia
[20] = tested on: SF-295 CNS
[21] = tested on: KM12 colon
[22] = tested on: MDA-MB-435
[23] = tested on: HT29 colon
[24] = tested on: EKVX NSCLC
[25] = tested on: 786-0 renal
[26] = tested on: SF-539 CNS
[27] = tested on: BT-549 breast
[28] = tested on: SK-MEL-2 melanoma
[29] = tested on: MCF7 breast
[30] = tested on: UO-31 renal
[31] = tested on: HCT-116 colon
[32] = tested on: RPMI-8226 leukemia
[33] = tested on: CAKI-1 renal
[34] = tested on: T-47D breast
[35] = tested on: NCI-H23 lung
[36] = tested on: UACC-62 melanoma
[37] = tested on: HCT-15 colon
[38] = tested on: NCI/ADR-RES ovarian
[39] = tested on: HL-60(TB) leukemia
[40] = tested on: A498 renal
[41] = tested on: RXF 393 renal
[42] = tested on: DU-145 prostate
[43] = tested on: M14 melanoma
[44] = tested on: MOLT-4 leukemia
[45] = tested on: SK-OV-3 ovarian
[46] = tested on: CCRF-CEM leukemia
[47] = tested on: A549 NSCLC
[48] = tested on: MDA-MB-231 breast
[49] = tested on: UACC-257 melanoma
[50] = tested on: U251 CNS
[51] = tested on: NCI-H460 lung
[52] = tested on: NCI-H522 lung
[53] = tested on: HOP-92 NSCLC
[54] = tested on: OVCAR-3 ovarian
[55] = tested on: MALME-3M melanoma
[56] = tested on: OVCAR-5 ovarian
[57] = tested on: HOP-62 NSCLC

Cc1ccc(C(=O)Nc2ccc(CN3CCN(C)CC3)c(C(F)(F)F)c2)cc1C#Cc1cnc2cccnn12
GI50 [1]: 367 nM and 742 nM | TGI [1]: 1510 nM and 3700 nM | GI50 [2]: 419 nM and 649 nM | TGI [2]: 1370 nM and 2880 nM | GI50 [3]: 262 nM and 515 nM | TGI [3]: 1260 nM and 3450 nM | GI50 [4]: 171 nM and 479 nM | TGI [4]: 1640 nM and 4320 nM | GI50 [5]: 790 nM and 2740 nM | TGI [5]: 2040 nM and 4660 nM | GI50 [6]: 328 nM and 879 nM | TGI [6]: 1240 nM and 3010 nM | GI50 [7]: 579 nM and 1380 nM | TGI [7]: 1860 nM and 4050 nM | GI50 [8]: 178 nM and 336 nM | TGI [8]: 973 nM and 1160 nM | GI50 [9]: 272 nM and 269 nM | TGI [9]: 1280 nM and 1810 nM | GI50 [10]: 364 nM and 544 nM | TGI [10]: 2520 nM | GI50 [11]: 283 nM and 594 nM | TGI [11]: 1520 nM and 4120 nM | GI50 [12]: 377 nM and 1020 nM | TGI [12]: 1660 nM and 3030 nM | GI50 [13]: 191 nM and 322 nM | TGI [13]: 1090 nM and 3240 nM | GI50 [14]: 298 nM | TGI [14]: 4410 nM | GI50 [15]: 367 nM and 1080 nM | TGI [15]: 1460 nM and 3750 nM | GI50 [16]: 973 nM and 2700 nM | TGI [16]: 2280 nM and 4670 nM | GI50 [17]: 474 nM and 730 nM | TGI [17]: 2060 nM and 4270 nM | GI50 [18]: 1140 nM and 2190 nM | TGI [18]: 3200 nM and 5590 nM | GI50 [19]: 447 nM and 383 nM | TGI [19]: 2110 nM and 1980 nM | GI50 [20]: 327 nM and 1260 nM | TGI [20]: 1750 nM and 4270 nM | GI50 [21]: 45.5 nM and 131 nM | TGI [21]: 1220 nM and 3720 nM | GI50 [22]: 260 nM and 753 nM | TGI [22]: 1230 nM and 3620 nM | GI50 [23]: 300 nM and 469 nM | TGI [23]: 1290 nM and 3420 nM | GI50 [24]: 635 nM and 1790 nM | TGI [24]: 2270 nM and 5140 nM | GI50 [25]: 428 nM and 903 nM | TGI [25]: 1690 nM and 4100 nM | GI50 [26]: 255 nM and 669 nM | TGI [26]: 722 nM and 2180 nM | GI50 [27]: 1150 nM and 2570 nM | TGI [27]: 2450 nM and 5190 nM | GI50 [28]: 217 nM and 492 nM | TGI [28]: 579 nM and 1430 nM | GI50 [29]: 720 nM and 1290 nM | TGI [29]: 2170 nM and 4420 nM | GI50 [30]: 340 nM and 349 nM | TGI [30]: 1520 nM and 3190 nM | GI50 [31]: 235 nM and 464 nM | TGI [31]: 1050 nM and 3430 nM | GI50 [32]: 627 nM and 1150 nM | TGI [32]: 3010 nM and 4260 nM | GI50 [33]: 274 nM and 388 nM | TGI [33]: 1090 nM and 1820 nM | GI50 [34]: 540 nM and 1680 nM | TGI [34]: 2070 nM and 4370 nM | GI50 [35]: 964 nM | TGI [35]: 4150 nM | GI50 [36]: 306 nM and 1060 nM | TGI [36]: 1520 nM | GI50 [37]: 313 nM and 501 nM | TGI [37]: 1270 nM and 3420 nM | GI50 [38]: 387 nM and 1030 nM | TGI [38]: 2150 nM and 4540 nM | GI50 [39]: 422 nM and 440 nM | TGI [39]: 1580 nM and 3880 nM | GI50 [40]: 299 nM and 470 nM | TGI [40]: 1070 nM and 1850 nM | GI50 [41]: 224 nM and 530 nM | TGI [41]: 972 nM and 2210 nM | GI50 [42]: 423 nM and 712 nM | TGI [42]: 1570 nM and 3720 nM | GI50 [43]: 162 nM and 351 nM | TGI [43]: 737 nM and 3420 nM | GI50 [44]: 350 nM and 703 nM | TGI [44]: 2020 nM and 4450 nM | GI50 [45]: 342 nM and 1160 nM | TGI [45]: 1220 nM and 3740 nM | GI50 [46]: 618 nM and 1650 nM | TGI [46]: 5210 nM and 5630 nM | GI50 [47]: 377 nM and 1310 nM | TGI [47]: 1550 nM and 3790 nM | GI50 [48]: 215 nM and 317 nM | TGI [48]: 1050 nM and 1240 nM | GI50 [49]: 536 nM and 1560 nM | TGI [49]: 2040 nM and 4390 nM | GI50 [50]: 473 nM and 1220 nM | TGI [50]: 1680 nM and 3940 nM | GI50 [51]: 763 nM | TGI [51]: 4070 nM | GI50 [52]: 319 nM and 538 nM | TGI [52]: 1280 nM and 3260 nM | GI50 [53]: 104 nM and 306 nM | TGI [53]: 785 nM and 2030 nM | GI50 [54]: 785 nM and 1360 nM | TGI [54]: 2070 nM and 4200 nM | GI50 [55]: 474 nM | TGI [55]: 2860 nM | GI50 [56]: 410 nM and 808 nM | TGI [56]: 1640 nM and 4690 nM | GI50 [57]: 413 nM and 849 nM | TGI [57]: 1530 nM and 3730 nM

CN(C)CCCN1c2ccccc2CCc2ccc(Cl)cc21
GI50 [1]: 1610 nM | TGI [1]: 3070 nM | GI50 [2]: 13300 nM | TGI [2]: 27200 nM | GI50 [3]: 3260 nM | TGI [3]: 16300 nM | GI50 [4]: 3640 nM | TGI [4]: 16400 nM | GI50 [5]: 1540 nM | TGI [5]: 2900 nM | GI50 [6]: 1910 nM | TGI [6]: 3530 nM | GI50 [7]: 1800 nM | TGI [7]: 3750 nM | GI50 [8]: 2310 nM | TGI [8]: 8160 nM | GI50 [9]: 7090 nM | TGI [9]: 22000 nM | GI50 [10]: 10600 nM | TGI [10]: 77100 nM | GI50 [11]: 3920 nM | TGI [11]: 16000 nM | GI50 [12]: 1700 nM | TGI [12]: 8770 nM | GI50 [13]: 3810 nM | TGI [13]: 13500 nM | GI50 [14]: 7220 nM | TGI [14]: 22500 nM | GI50 [15]: 8230 nM | TGI [15]: 23600 nM | GI50 [16]: 6420 nM | TGI [16]: 21500 nM | GI50 [17]: 4920 nM | TGI [17]: 18200 nM | GI50 [18]: 2980 nM | TGI [18]: 15400 nM | GI50 [19]: 2080 nM | TGI [19]: 5110 nM | GI50 [20]: 3510 nM | TGI [20]: 14800 nM | GI50 [21]: 3770 nM | TGI [21]: 13600 nM | GI50 [22]: 2350 nM | TGI [22]: 6910 nM | GI50 [23]: 3380 nM | TGI [23]: 11600 nM | GI50 [24]: 10900 nM | TGI [24]: 26400 nM | GI50 [25]: 5500 nM | TGI [25]: 19200 nM | GI50 [26]: 5590 nM | TGI [26]: 17700 nM | GI50 [27]: 10400 nM | TGI [27]: 22200 nM | GI50 [28]: 3010 nM | TGI [28]: 7510 nM | GI50 [29]: 1760 nM | TGI [29]: 3660 nM | GI50 [30]: 5170 nM | TGI [30]: 19700 nM | GI50 [31]: 3530 nM | TGI [31]: 12300 nM | GI50 [32]: 2620 nM | TGI [32]: 8260 nM | GI50 [33]: 3880 nM | TGI [33]: 16800 nM | GI50 [34]: 3260 nM | TGI [34]: 10600 nM | GI50 [35]: 7510 nM | TGI [35]: 21900 nM | GI50 [36]: 1610 nM | TGI [36]: 3310 nM | GI50 [37]: 3350 nM | TGI [37]: 12100 nM | GI50 [38]: 3330 nM | TGI [38]: 14800 nM | GI50 [39]: 3630 nM | TGI [39]: 13200 nM | GI50 [40]: 5470 nM | TGI [40]: 19400 nM | GI50 [41]: 2000 nM | TGI [41]: 7660 nM | GI50 [42]: 10800 nM | TGI [42]: 23100 nM | GI50 [43]: 1830 nM | TGI [43]: 3350 nM | GI50 [44]: 3070 nM | TGI [44]: 11100 nM | GI50 [45]: 4490 nM | TGI [45]: 15400 nM | GI50 [46]: 3070 nM | TGI [46]: 12000 nM | GI50 [47]: 9270 nM | TGI [47]: 23200 nM | GI50 [48]: 3060 nM | TGI [48]: 12000 nM | GI50 [49]: 1840 nM | TGI [49]: 3410 nM | GI50 [50]: 3800 nM | TGI [50]: 14700 nM | GI50 [51]: 4460 nM | TGI [51]: 19100 nM | GI50 [52]: 5150 nM | TGI [52]: 18100 nM | GI50 [53]: 1440 nM | TGI [53]: 6800 nM | GI50 [54]: 9170 nM | TGI [54]: 23100 nM | GI50 [55]: 2030 nM | TGI [55]: 3990 nM | GI50 [56]: 4070 nM | TGI [56]: 16200 nM | GI50 [57]: 10800 nM | TGI [57]: 23300 nM
